Reference: publication PMC6154339, “Synthesis, Characterization, Antimicrobial and Antiproliferative Activity Evaluation of Cu(II), Co(II), Zn(II), Ni(II) and Pt(II) Complexes with Isoniazid-Derived Compound” (Molecules : A Journal of Synthetic Chemistry and Natural …, 2017)
In brackets after ≈: the same amount, converted by molar mass. Where two headings read alike, the source gives them in different places.

Key:
Candida albicans = experiment: Antifungal (antimycotic) activity, liquid Sabouraud medium (MIC/MBC); type: cell-based; conditions: C. albicans
Excerpt: (§1) All synthesized complexes and the ligand were screened for their in vitro antibacterial activity against Gram-positive bacteria (Staphylococcus aureus), Gram-negative bacteria (Escherichia coli, Klebsiella pneumoniae) and antifungal activity (Candida albicans) strains using the paper disc diffusion technique (for the qualitative determination) and the serial dilutions in liquid broth method (for determination of MIC). Furacillinum and nystatine were used as standard drugs.
Antimycotic properties of the complexes were investigated in vitro on laboratory stem Candida albicans. The activity has been determined in a liquid Sabouraud nutritive environment (pH 6.8). The inoculates were prepared from fungi stems which were harvested over 3–7 days. Their concentration in suspension is (2–4) × 10^6 colonies form unities in milliliter. Sowings for levures and micelles were incubated at 37 °C during 7 and 14 days, respectively.

[1] = Qualitative solubility in organic solvents; type: physicochemical
[2] = test system: Staphylococcus aureus, ATCC 25923; experiment: Antibacterial activity, serial dilutions in liquid broth (MIC/MBC); type: cell-based; conditions: S. aureus (G +)
Excerpt: as §1
(§2) The antibacterial activity of complexes and also of their prototype furacilin has been determined under liquid nutritive environment (2% of peptonate bullion (pH 7.0)) using the successive dilutions method. Escherichia coli, Klebsiella pneumoniae, and Staphylococcus aureus stems were used as reference culture for the in vitro experiment. The dissolution of studied substances in dimethylformamide, microorganism cultivation, suspension obtaining, determination of minimal inhibition concentration (MIC) and minimal bactericide concentration (MBC) have been carried out according to the method previously reported.

[3] = test system: Klebsiella pneumoniae, ATCC 31,488; experiment: as above; type: cell-based; conditions: K. pneumoniae (G −)
Excerpt: as §1, §2

[4] = test system: Escherichia coli, ATCC 25922; experiment: as above; type: cell-based; conditions: E. coli (G −)
Excerpt: as §1, §2

[5] = Solubility in compendial aqueous media; type: physicochemical; conditions: 37 °C, 30 min, mean ± standard deviation, n = 3
Procedure: Solubility assessment was conducted in compendial aqueous solutions prepared according to United States Pharmacopoeia USP39/NF34): hydrochloric acid 0.1 N pH 1.2, acetate buffer pH 4.5 and phosphate buffer 6.8. These buffer systems are routinely used for screening of drug dissolution testing and they simulate the pH values of proximal gastrointestinal regions. The standard samples were prepared by diluting the stock solution of 80 µg/mL in dimethyl sulfoxide (with 0.2% pyridine, v/v) with corresponding media. The reagents were of analytical grade and used as received.
The assay was performed using a SpectraMax Plus 84 Plate reader reader (Sunnyvale, CA, USA), Molecular Devices LLC (US), equiped with SoftMax software version 6.4.2 (Sunnyvale, CA, USA). Separate plates were loaded with standard solutions in nine concentrations (0.2 to 80 µg/mL). For evaluation of the aqueous solubility, the samples were prepared in triplicate by adding 10 µL of the stock solution to the wells loaded with 190 µL of each buffer, using MultiScreen HTS plates (PCF, code MSSLBPC, Merck Millipore, Darmstadt, Germany). After 30 minutes of incubation at 37 ± 0.5 °C under agitation (250 rpm, IKA KS 4000 ic control, IKA, Staufen, Germany), the plates were filtrated under vacuum using a Vac-Man 96 Vacuum manifold (Promega Corporation, Madison, WI, USA). The solutions were collected in V-bottom polypropylene 96-well microplates (Greiner Bio-One, Kremsmünster, Austria). Volumes of 100 µL were transferred to UV-Star 96-well microplate with flat bottom (Chimney well, Grained Bio-One) and diluted by addition of 100 µL of the corresponding medium. The absorbance corresponding to each well was determined at fixed wavelengths: 280, 300, 320, 340, 360 and 800 nm. The reduced value of absorbance, calculated by the sum of the values recorded at the six wavelengths, were used for the calibration curve and subsequent determination of concentration in each solubility sample.

[6] = test system: MCF-7 human breast cancer cell line; experiment: Alamar blue cell viability assay; type: cell-based; conditions: 48 h treatment, 10 µM, relative to untreated control
Procedure: (§3) Compounds HL, 1, 5, 6 and 8 were dissolved in dimethyl sulfoxide (DMSO; Sigma-Aldrich, Ayrshire, UK) and stored at 2–8 °C. Compounds 2, 3, 4 and 7 were dissolved in pyridine (Fluka, Munich, Germany). A stock solution of 10 mM in the proper solvents was prepared; as for the final concentration (10 µM), successive dilution of the stock solution with culture medium was made.
(§4) The breast cancer cell lines were cultured as follow: MCF-7 human breast cancer cell line (ATCC, Rockville, MD, USA) was cultured in EMEM (Sigma Aldrich, Munich, Germany) supplemented with 10% FCS (fetal bovine serum, PromoCell, Heidelberg, Germany), 1% penicillin-streptomycin (Pen/Strep, 10,000 IU/mL; PromoCell, Heidelberg, Germany), 1% nonessential amino acids and 1% glutamine (PromoCell, Heidelberg, Germany). SKBR-3 human breast cancer cell line was cultured in McCoy’s 5a Medium Modified (Sigma Aldrich, Munich, Germany) supplemented with 10% FCS (fetal bovine serum, PromoCell, Heidelberg, Germany), 1% penicillin-streptomycin (Pen/Strep, 10,000 IU/mL; PromoCell, Heidelberg, Germany). A375 human melanoma cell line was cultured in DMEM containing 15% FCS (fetal bovine serum, PromoCell, Heidelberg, Germany) and 1% penicillin-streptomycin (Pen/Strep, 10,000 IU/mL; PromoCell, Heidelberg, Germany). Cells were maintained at an atmosphere of 5% CO2 at 37 °C. NCI-H1573 lung adenocarcinoma cell line was cultured in RPMI-1640 Medium (ATCC, Rockville, MD, USA) supplemented with 10% FCS (fetal bovine serum, PromoCell, Heidelberg, Germany), 1% penicillin-streptomycin (Pen/Strep, 10,000 IU/mL; PromoCell, Heidelberg, Germany).
(§5) All tested cell lines were seeded onto a 96-well microplate ([…]) and left overnight to attach to the bottom of the well. After 24 h, the amount of 150 μL of the tested substances dissolved into the culture medium was added and cells were incubated for 48 h. After the incubation period, a volume of 15 μL of the Alamar blue (BioSource, Camarillo, CA, USA) solution was added. After another 10 h of incubation at 37 °C, the samples were spectrophotometrically analyzed using a microplate reader. The wave lengths used were 570 nm and 600 nm, respectively. Wells with untreated cells were used as controls. The highest concentration of DMSO and pyridine (0.1%) used to prepare stock solutions was also tested, in order to identify the solvent activity. All measurements were performed in triplicate and data were presented as mean ± standard deviation.

[7] = test system: SKBR-3 human breast cancer cell line; experiment: Alamar blue cell viability assay; type: cell-based; conditions: 48 h treatment, 10 µM, relative to untreated control
Procedure: as §3, §4, §5

[8] = test system: A375 human melanoma cell line; experiment: Alamar blue cell viability assay; type: cell-based; conditions: 48 h treatment, 10 µM, relative to untreated control
Procedure: as §3, §4, §5

[9] = test system: NCI-H1573 lung adenocarcinoma cell line; experiment: Alamar blue cell viability assay; type: cell-based; conditions: 48 h treatment, 10 µM, relative to untreated control
Procedure: as §3, §4, §5

[10] = Hydrochloric Acid 0.1 N (pH = 1.2)

Compound | MBC (Candida albicans) | MIC (Candida albicans) | LC50 (Daphnia magna; incubation period 24 h) | LC50 (Daphnia magna; incubation period 48 h) | solubility in organic solvents (qualitative) [1] | MBC [2] | MIC [2] | MBC [3] | MIC [3] | MBC [4] | MIC [4] | solubility in compendial media ([5]; Acetate Buffer (pH = 4.5)) | solubility in compendial media [5, 10] | solubility in compendial media ([5]; Phosphate Buffer (pH = 6.8)) | Viability % [6] | Viability % [7] | Viability % [8] | Viability % [9]
C[C@@H]1[C@H](O)[C@@H](C)/C=C/C=C/CC/C=C/C=C/C=C/C=C/C(O[C@H]2O[C@H](C)[C@@H](O)[C@H](N)[C@@H]2O)CC2O[C@](O)(CC(O)C(O)CCC(O)CC(O)CC(O)CC(=O)O[C@H]1C)CC(O)C2C(=O)O (stereo partly drawn) [Nystatine, reference compound] | 80 µg/mL (≈ 86.4 µM) | 80 µg/mL (≈ 86.4 µM) |  |  |  |  |  |  |  |  |  |  |  |  |  |  |  | 
[Cl-].[Cl-].[Zn+2] [ZnCl2] |  |  | 15.4 µM | 0.89 µM |  |  |  |  |  |  |  |  |  |  |  |  |  | 
COc1cccc(C=NNC(=O)c2ccncc2)c1[O-].O.O.[Cl-].[Cu+2] [complex 1, [Cu(L)(Cl)]·2H2O] | 15 µg/mL | 7 µg/mL | 394 µM | 69.5 µM | soluble in acetone, acetonitrile, DMF and DMSO, and is partially soluble in ethanol and methanol | 0.03 µg/mL | 0.015 µg/mL | 500 µg/mL | 500 µg/mL | 500 µg/mL | 500 µg/mL | 1.89 ± 0.20 µg/mL | 2.34 ± 0.28 µg/mL | <0.2 µg/mL | 2.47% | 25.24% | 84.43% | 
COc1cccc(C=NNC(=O)c2ccncc2)c1[O-].O.[Cu+2].[O-][Cl+3]([O-])([O-])[O-] [complex 4, [Cu(L)(ClO4)]·H2O] | 0.7 µg/mL | 0.7 µg/mL |  |  | soluble in pyridine and is partially soluble in ethanol, methanol, acetonitrile, acetone, DMF and DMSO | 0.7 µg/mL | 0.7 µg/mL | 500 µg/mL | 250 µg/mL | 500 µg/mL | 250 µg/mL | 1.67 ± 0.28 µg/mL | 0.82 ± 0.6 µg/mL | <0.2 µg/mL | 3.43% | 48.72% | 0.70% | 10.05%
COc1cccc(C=NNC(=O)c2ccncc2)c1[O-].COc1cccc(C=NNC(=O)c2ccncc2)c1[O-].[Zn+2] [complex 6, [Zn(L)2]] | 125 µg/mL | 125 µg/mL |  |  | soluble in pyridine, DMF and DMSO, and is partially soluble in ethanol, methanol, acetonitrile, acetone | 125 µg/mL | 63 µg/mL | 250 µg/mL | 250 µg/mL | 250 µg/mL | 125 µg/mL | 1.56 ± 0.82 µg/mL | 1.65 ± 0.06 µg/mL | <0.2 µg/mL | 17.72% | 61.43% | 71.66% | 33.77%
COc1cccc(C=NNC(=O)c2ccncc2)c1[O-].[Cl-].[Ni+2] [complex 7, [Ni(L)(Cl)]] | 125 µg/mL | 125 µg/mL | 351 µM | 210 µM | soluble in methanol, pyridine, DMF and DMSO, and is partially soluble in acetonitrile, acetone | 0.7 µg/mL | 0.7 µg/mL | 500 µg/mL | 500 µg/mL | 500 µg/mL | 500 µg/mL | 1.91 ± 0.26 µg/mL | 2.26 ± 0.44 µg/mL | <0.2 µg/mL | 47.75% | 21.11% | 98.97% | 
COc1cccc(C=NNC(=O)c2ccncc2)c1[O-].[Cl-].[Pt+2] [complex 8, [Pt(L)(Cl)]] | 63 µg/mL | 63 µg/mL | 469 µM | 78.2 µM | soluble in DMF and DMSO, and is partially soluble in ethanol, methanol, acetonitrile, acetone | 0.7 µg/mL | 0.7 µg/mL | 500 µg/mL | 250 µg/mL | 250 µg/mL | 125 µg/mL | 2.49 ± 0.09 µg/mL | 1.33 ± 0.05 µg/mL | <0.2 µg/mL | 21.71% |  | 73.45% | 20.34%
